In US20060142193A1, “Selective inhibition of rock1 in cardiac therapy” (BAYLOR COLLEGE OF MEDICINE, priority 2004, published 2006):
“Also recorded” adds a separate entry of the source.

Assays:
[1] = tested on: conditional caspase 3 (iCasp3); experiment: ROCK1 cleavage in cardiomyocytes infected with Ad-G/iCasp3 (conditional caspase 3) and treated with CID; type: cell-based, rat; conditions: for 130 kDa cleavage fragment of ROCK1: cardiomyocytes infected with Ad-G/iCasp3 and treated with CID
Text: To analyze direct effect of caspase 3 activation on ROCK1 cleavage, the present inventors introduced a conditional caspase 3 via an adenoviral-mediated expression system in cultured rat neonatal cardiomyocytes. The adenoviral vector, Ad-G/iCasp3, has been described previously (Shariat et al., 2001; Mallet et al., 2002). This vector expresses a conditional caspase 3 (iCasp3), in which the human caspase 3 was fused to a modified FK506-binding domain, containing a binding site for a non-toxic chemical inducer of dimerization (CID), AP20187. Addition of CID leads to the aggregation and activation this caspase, and a rapid apoptosis in prostate cancer cells (Shariat et al., 2001; Mallet et al., 2002). This is depicted in FIG. 8C.
Cell culture, plasmid constructs, and recombinant adenoviruses. Neonatal rat cardiomyocytes were isolated and cultured in DMEM/F12 medium (1:1) with 10% horse serum (DF10); cells were ready for transfection or virus infection 40 hours after plating. For immunostaining, cells were cultured on pre-coated (with 0.2% gelatin) coverslips. Transfections were performed using LipofectAMINE 2000 (Invitrogen) with Opti-MEM I Reduced Serum Medium (Invitrogen). After 6 hr or O/N, cells were cultured in DF10. With human embryonic kidney (HEK) A293T cells, cells were cultured in DMEM with 10% fetal bovine serum. The cDNA for full length human ROCK-1 cloned into the pCAG-myc vector (pCAG-ROCK-1) was kindly provided by Dr. Narumiya. All ROCK-1 and mutant constructs were tagged with a Myc epitope at the amino-terminus. The Asp718-MscI cDNA fragment encoding ROCKΔ1 mutant (residues 1-1080) was also cloned into the pCAG-myc vector (pCAG-ROCKΔ1) (Ishizaki et al., 1997). A signal lysine at residue 105 was replaced by alanine to generate a kinase deficient mutant, pCAG-ROCK-1KD. The adenoviral vector, Ad-G/iCasp 3, expressing conditional caspase 3, was generously provided by Drs. David Spencer and Kevin Slawin at Baylor College of Medicine. […]

ROCK1 = ROCK1 cleavage in doxorubicin-treated cultured neonatal rat cardiomyocytes (Western blot); type: cell-based
Text: To determine if ROCK1 is cleaved by caspase 3 in apoptotic cardiomyocytes, the present inventors subjected cultured rat neonatal cardiomyocytes to doxorubicin treatment, which is a potent apoptotic inducer. The 130 kDa cleavage fragment of ROCK1 was detected in doxorubicin-treated myocytes as well as the cleaved PARP. In contrast, cleavage of ROCK2 was not observed. In addition, cleavage of ROCK1 is caspase 3-dependent, as the 130 kDa species was not detected in the presence of caspase 3 inhibitor, Z-VAD.
Cell culture, plasmid constructs, and recombinant adenoviruses. Neonatal rat cardiomyocytes were isolated and cultured in DMEM/F12 medium (1:1) with 10% horse serum (DF10); cells were ready for transfection or virus infection 40 hours after plating. For immunostaining, cells were cultured on pre-coated (with 0.2% gelatin) coverslips. Transfections were performed using LipofectAMINE 2000 (Invitrogen) with Opti-MEM I Reduced Serum Medium (Invitrogen). After 6 hr or O/N, cells were cultured in DF10. With human embryonic kidney (HEK) A293T cells, cells were cultured in DMEM with 10% fetal bovine serum. The cDNA for full length human ROCK-1 cloned into the pCAG-myc vector (pCAG-ROCK-1) was kindly provided by Dr. Narumiya. All ROCK-1 and mutant constructs were tagged with a Myc epitope at the amino-terminus. The Asp718-MscI cDNA fragment encoding ROCKΔ1 mutant (residues 1-1080) was also cloned into the pCAG-myc vector (pCAG-ROCKΔ1) (Ishizaki et al., 1997). A signal lysine at residue 105 was replaced by alanine to generate a kinase deficient mutant, pCAG-ROCK-1KD. The adenoviral vector, Ad-G/iCasp 3, expressing conditional caspase 3, was generously provided by Drs. David Spencer and Kevin Slawin at Baylor College of Medicine. Addition of CID, AP20187 (50 nM, 24 hr), provoked the aggregation and activation of caspase 3 as well as rapid apoptosis (Shariat et al., 2001; Mallet et al., 2002).
Western blot and Malachite green assay. Anti-ROCK-1, caspase 3, PARP, His, α-actin antibodies (Santa Cruz), anti-phospho-AKTser473 (Cell Signaling) and anti-RTEN (Upstate) were purchased. Protein samples for Western blot were prepared and separated as described earlier (Chang et al., 2000). Even loadings were confirmed by Ponceau staining and antibody probed for actin. PTEN activity was evaluated by Malachite green assay (Upstate). 500 μg of cell lysate protein was used for immunoprecipitation.

caspase 3 = experiment: Ceramide-induced caspase 3 activation and apoptosis in cardiomyocytes (caspase 3 sensor, fluorescent staining); type: cell-based, rat; conditions: without siRNA treatment
Description: Apoptosis assay and immunofluorescence analysis. Apoptosis was evaluated using caspase 3 activity and poly(ADP-ribose) polymerase (PARP) cleavage with Western blot in human and mouse heart tissues. With regard to apoptotic cultured neonatal cardiomyocytes, a caspase 3 sensor (BD Biosciences) was introduced to detect the onset of caspase 3 activity (FIG. 9). The vector encodes EYFP (enhanced yellow fluorescent protein) fused with NES (nuclear export signal) and NLS (nuclear localization signal). A caspase 3 specific cleavage site is located between EYFP and NES. […] Upon induction of apoptosis, the export signal is removed by active caspase 3, which triggers the redistribution of EYFP from the cytosol to the nucleus via NLS. The quantification was performed by counting the number of transfected cells with the nuclear localization of fluorescent fusion protein over the total transfected cells. Alexa Fluor 594 phalloidin staining (Molecular Probes) and DAPI staining were applied for F-actin and cellular nuclei visualization, respectively.
siRNAs application for ROCK-1 and PTEN knockdown and ceramide-induced apoptosis. To knockdown ROCK-1 expression in neonatal rat cardiomyocytes, 100 nM siRNA (Ambion) was used with co-transfection of caspase 3 sensor vector as described above. Same amount of siRNA specific for PTEN (Ambion) was applied to human HEK cells. […]

protein kinases A and C = conditions: lower affinity than that for Rho kinase; cited from earlier work
[2] = tested on: myeline basic protein (MBP) kinase (MBP-kinase); experiment: Kinase-Glo luminescent kinase assay; type: biochemical; conditions: SRF-N as substrate, ATP
Description: In a particular embodiment, the Kinase-Glo luminescent kinase assay from Promega (Madison, Wis.) is employed, which comprises a method of measuring kinase activity by quantifying the amount of ATP remaining in solution following a kinase reaction. […] In additional embodiments, the Km and/or kcat for SRF-N against MBP-Kinase and the IC50 or Ki for PH domain are measured, such as by standard methods in the art.
FIG. 25B illustrates the role of ROCK in processing of its substrates in the presence of ATP.

[3] = tested on: Dahl salt-sensitive hypertensive rats; conditions: administration to Dahl salt-sensitive hypertensive rats; cited from earlier work
early chick embryos = conditions: treated early chick embryos; cited from earlier work
[4] = tested on: human growth hormone (hGH) transgene; experiment: Cardiac-specific RU486-inducible gene-switch expression of human growth hormone in bi-transgenic mice; type: in vivo, mouse; conditions: after 4 days of administration, dose-dependent, estimated
Description: Expression of the transgene is induced in all 4 chambers of the bi-transgenic hearts by administration of RU486 for 4 days. […] The serum level of hGH was measured by radioimmunoassay.

[5] = tested on: angiotensin II-infused rats; conditions: administration of fasudil; cited from earlier work
[6] = doxorubicin-treated myocytes, Western blot

Question: Which results are given for `CC[C@H](C(=O)N1CCCC[C@H]1C(=O)O[C@H](CCc1ccc(OC)c(OC)c1)c1cccc(OCC(=O)NCC(CNC(=O)COc2cccc([C@@H](CCc3ccc(OC)c(OC)c3)OC(=O)[C@@H]3CCCCN3C(=O)[C@@H](CC)c3cc(OC)c(OC)c(OC)c3)c2)CN(C)C)c1)c1cc(OC)c(OC)c(OC)c1` [AP20187]?
Answer: cleavage of SRF ([1]; Ad-G/iCasp3 in the presence of CID, data not shown): not detectable; 130 kDa cleavage fragment of ROCK1 [1]: detected; 130 kDa cleavage fragment of ROCK1 ([1]; listed as CID): cleavage of ROCK-1 only in the presence of CID

Question: With `COc1cccc2c1C(=O)c1c(O)c3c(c(O)c1C2=O)C[C@@](O)(C(=O)CO)C[C@@H]3O[C@H]1C[C@H](N)[C@H](O)[C@H](C)O1` [doxorubicin] as the molecule, how does the “cleavage of ROCK2” value (ROCK1; doxorubicin-treated myocytes) read?
Answer: not observed

Question: What about the “130 kDa cleavage fragment of ROCK1” value (ROCK1; [6]) of the same molecule?
Answer: detected; also recorded: revealed cleavages

Question: And the “cleaved PARP” value (ROCK1; [6])?
Answer: detected; also recorded: revealed cleavages

Question: And the “cleavage of SRF” value (ROCK1; doxorubicin-treated neonatal cardiomyocytes, data not shown)?
Answer: not detectable

Question: Which “induction of caspase 3 activation and cellular apoptosis” value (caspase 3) does the source give for ceramide here?
Answer: strongly induced caspase 3 activation

Question: Which “affinity for protein kinases A and C relative to Rho kinase” value (protein kinases A and C) does the source give for `C[C@@H](N)[C@H]1CC[C@H](C(=O)Nc2ccncc2)CC1` [Y27632] here?
Answer: about 200 times

Question: What about the “inhibition activity against MBP-kinase” value [2] of the same molecule?
Answer: inhibition activity

Question: What about the “effect on cardiac hypertrophy and remodeling” value [3] of the same molecule?
Answer: regression of cardiac hypertrophy and decreased pathological remodeling

Question: What about the “expression of cardiac α-actin (early cardiac differentiation marker)” value (early chick embryos) of the same molecule?
Answer: precocious expression of cardiac α-actin was observed

Question: Which “130 kDa ROCK1 species in presence of caspase 3 inhibitor” value (ROCK1; doxorubicin-treated myocytes plus inhibitor) does the source give for Z-VAD here?
Answer: not detected; also recorded: blocked the cleavage

Question: With `CC#C[C@]1(O)CC[C@H]2[C@@H]3CCC4=CC(=O)CCC4=C3[C@@H](c3ccc(N(C)C)cc3)C[C@@]21C` [RU486] as the molecule, how does the “inducible level of hGH in the transgenic heart versus the basal level” value [4] read?
Answer: 100 to 1000 fold

Question: Which “effect on angiotensin II-induced cardiovascular changes” value [5] does the source give for `O=S(=O)(c1cccc2cnccc12)N1CCCNCC1` [fasudil] here?
Answer: suppresses angiotensin II-induced coronary vascular hypertrophy, endothelial dysfunction and cardiomyocyte hypertrophy
